In patent US8003630B2, “Combinatorial therapies for the treatment of neoplasias using the opioid growth factor receptor” (The Penn State Research Foundation, priority 2004, dated 2011):
Marks after values point to notes of the source that are not given here.

Tests used:
SCC-1 cells [1] = assay: Growth curves of SCC-1 cells, cell proliferation (MTT) assay, absorbency
From the text: Cells were counted using a standard MTT assay. In general, each data point represents the average absorbency taken from 10 wells/treatment; error bars represent the S.E.M.

SCC-1 cells [2] = assay: Cell proliferation assays of SCC-1 cells (MTS or cell counting), Example 8; type: cell-based, human; conditions: for rates of growth over the 4 day period: slopes of growth curves; for difference in cell number between reversal group and group continuing drug exposure: within 48 hr after withdrawal
Procedure: (§1) The UM-SCC-1 cell line (SCC-1) was derived from a well-differentiated recurrent squamous cell carcinoma in the floor of the mouth of a person (25). This cell line was obtained from The University of Michigan, Cancer Research Laboratory (Thomas E. Carey, Ph.D., Director). CAL-27 human squamous cell carcinoma cell line, derived from a poorly differentiated carcinoma of the tongue in a person ([…]), was obtained from the American Type Culture Collection (Manassas, Va.). Both cell lines were grown in Dulbecco's MEM (modified) media supplemented with 10% fetal calf serum, 1.2% sodium bicarbonate, and antibiotics (5,000 Units/ml penicillin, 5 mg/ml streptomycin, 10 mg/ml neomycin). The cell cultures were maintained in a humidified atmosphere of 7% CO2/93% air at 37° C.
(§2) Cells were seeded at equivalent amounts into either 6-well or 96-well plates (Falcon) and counted 24 hr later to determine plating efficiency.
The dosage of carboplatin selected was based on previous reports (27, 28), as well as preliminary studies in our laboratory.
(§3) Cell number was recorded either by using the MTS proliferation bioassay (Cell Titer 96 One Solution, Promega, Madison, Wis.) and measuring absorbency after 4 hr on a Biorad (Model 3550) plate reader at 490 nm with a 750 nm background absorbance screening, or by directly counting cells. The MTS assay utilized 10 wells/treatment. For manual counts, cells were harvested by trypsinization with 0.25% trypsin/0.53 mM EDTA, centrif uiged, and counted with a hemacytometer. Cell viability was determined by trypan blue staining. At least two aliquots per well, and 4-10 wells/treatment, were counted at each time for manual counting.
For some experiments, the rate of growth over a 96-hr period of time was calculated using linear regression analyses. The slopes of the lines (number of cells/hr) were compared by analysis of variance. All calculations were performed with GraphPad Prism software.

SCC-1 cells [3] = assay: DNA synthesis, BrdU incorporation into SCC-1 cells; type: cell-based, human; conditions: 3 days of drug treatment
Procedure: To examine DNA synthesis, SCC-1 cells were seeded onto 22 mm diameter coverglasses placed in 6-well plates (3×10^3 cells/coverglass). […] Three hours prior to fixing cells, 30 μM BrdU was added to cultures. At appropriate times, cells were rinsed, fixed in 10% neutral buffered formalin, and stained with antibodies to BrdU (Roche, Indianapolis, Ind.). The number of positive cells was recorded using fluorescence microscopy. At least 1000 cells/treatment at each time were counted.

SCC-1 cells [4] = assay: SCC-1 xenograft in nude mice, tumor growth, survival, termination day measurements (Example 9); conditions: for latency time to develop visible tumors: controls 7 days; for Incidence of measurable tumor (day 17) / Incidence of measurable tumor (day 13): mice with tumor/N; for Incidence of measurable tumor (day 13): OGF 10 mg/kg daily and/or paclitaxel 8 mg/kg every other day i.p.; for Metastases: spleen, liver, lymph nodes
From the text: Male 4 week old nu/nu nude mice purchased from Harlan Laboratories (Indianapolis, Ind.) were housed in pathogen-free isolators in the Department of Comparative Medicine at the Penn State University College of Medicine. All procedures were approved by the IACUC committee of the Penn State University College of Medicine and conformed to the guidelines established by NIH. Mice were allowed 48 hr to acclimate prior to beginning experimentation.
Tumor cells were inoculated into nude mice by subcutaneous injection into the right scapular region. Subcutaneous injections were performed with at least 2×10^6 cells per mouse; mice were not anesthetized for this procedure.
Dosages were selected based on published reports. […] Injections of drugs were initiated 1 hr after tumor cell inoculation. […] Mice were weighed weekly to determine drug dosage.
Mice were observed daily for the presence of tumors. The latency for a visible tumor to appear, and the time until tumors were measurable (i.e., 62.5 mm^3), were recorded. Tumors were measured using calipers every day. Tumor volume was calculated using the formula w^2×1×π/6, where the length is the longest dimension, and width is the dimension perpendicular to length.
According to institutional policies and IACUC guidelines, mice were terminated when tumors became ulcerated, or tumors grew to 2 cm in diameter. […] Tumors and spleens were removed and weighed, and the lymph nodes, liver, and spleen examined for metastases.

CAL-27 cells = assay: Cell proliferation assay of CAL-27 cells; type: cell-based, human; conditions: 48 hr; for fewer cells than in control cultures: OGF 10^−6 M and/or paclitaxel 10^−10 M
Procedure: as §1, §2, §3

SCC-1 cells [5] = assay: Apoptosis, caspase-3 activity by flow cytometry in SCC-1 cells; type: cell-based, human; conditions: for percentage of caspase-3 positive cells: SCC-1, one day of treatment
Procedure: Caspase-3-FITC positive staining was used to characterize early stages of apoptosis (29). SCC-1 cells were seeded into 6-well plates and treated with drugs beginning 24 hr later; drugs and media were replaced daily. Cells were harvested after 1, 3 and 6 days of drug treatment, and prepared according to manufacturer's recommendations for FACS analysis (FACS cell sorter with a 15 mW argon ion laser at 488 nm; Becton, Dickinson and Company, Franklin Lakes, N.J.). […] Three samples from each treatment were analyzed at each time point. The percent gated cells recorded by flow cytometry was considered caspase positive.

[6] = 48 h, paclitaxel 10^−7 M and/or OGF 10^−6 M
[7] = 72 h, paclitaxel 10^−7 M and/or OGF 10^−6 M
[8] = 96 h, paclitaxel 10^−7 M and/or OGF 10^−6 M
[9] = SCC-1, 48 hr, OGF 10^−6 M and/or paclitaxel 10^−8 M
[10] = SCC-1, 72 hr, OGF 10^−6 M and/or paclitaxel 10^−8 M
[11] = SCC-1, 96 hr, OGF 10^−6 M and/or paclitaxel 10^−8 M
[12] = day 50 (paclitaxel group: day each mouse died), means ± SEM

| Compound | decrease in cell number from control levels (SCC-1 cells [1]; [6]) [%] | decrease in cell number from control levels (SCC-1 cells [1]; [7]) [%] | decrease in cell number from control levels (SCC-1 cells [1]; [8]) [%] | reduction of cell number from control levels (SCC-1 cells [2]; [9]) | reduction of cell number from control levels (SCC-1 cells [2]; [10]) [%] | reduction of cell number from control levels (SCC-1 cells [2]; [11]) [%] | rates of growth over the 4 day period (SCC-1 cells [2]; SCC-1) | difference in cell number between reversal group and group continuing drug exposure (SCC-1 cells [2]; SCC-1) | decrease in the number of BrdU positive cells from control levels (SCC-1 cells [3]) [%] | latency time to develop visible tumors (SCC-1 cells [4]) | mice with measurable tumors (SCC-1 cells [4]; day 13) [%] | mice with measurable tumors (SCC-1 cells [4]; day 17) [%] | Incidence of measurable tumor (day 17) (SCC-1 cells [4]) | Incidence of measurable tumor (day 13) (SCC-1 cells [4]) | Metastases (SCC-1 cells [4]) | fewer cells than in control cultures (CAL-27 cells) [%] | percentage of caspase-3 positive cells (SCC-1 cells [5]) | further results |
| --- | --- | --- | --- | --- | --- | --- | --- | --- | --- | --- | --- | --- | --- | --- | --- | --- | --- | --- |
| CC(=O)O[C@H]1C(=O)[C@@]2(C)[C@H]([C@H](OC(=O)c3ccccc3)[C@]3(O)C[C@H](OC(=O)[C@H](O)[C@@H](NC(=O)c4ccccc4)c4ccccc4)C(C)=C1C3(C)C)[C@]1(OC(C)=O)CO[C@@H]1C[C@@H]2O [paclitaxel] | 34.4 | 58 | 70 | ~33% | 25 | 51 | notably reduced from control values | did not differ | 24 | comparable | 66 | 83 | 10/12 | 8/12 | none | 35 | negligible | decrease in cell number from control levels (SCC-1 cells [1]; 24 h, paclitaxel 10^−7 M and/or OGF 10^−6 M): 14.2%; decrease in cell number from control levels (SCC-1 cells [1]; 96 h, paclitaxel 10^−8 M alone or with OGF 10^−6 M): 19.3%; inhibition at 0.01 µM (SCC-1 cells [2]; Homo sapiens, read-out: inhibition of cell growth relative to control levels): 8.8 to 26%; deaths during the experimental period (SCC-1 cells [4]; 50 days): only one mouse in this group was alive; Body Weight, g (SCC-1 cells [4]; [12]): 22.6 ± 0.8***+++^^^ g; Spleen Weight (SCC-1 cells [4]; [12]): 243 ± 8 mg; mice that had died by day 40 (SCC-1 cells [4]; male, nu/nu nude, mouse, in vivo, 8 mg/kg, 40 day): 75%; time within which mice began dying (SCC-1 cells [4]; male, nu/nu nude, mouse, in vivo, 50 days): ≤ 20 days; Latency to measurable tumor (SCC-1 cells [4]; means ± SEM): 14.8 ± 1.7 days; Latency to visible tumor (SCC-1 cells [4]; means ± SEM): 7.4 ± 1.4 days; body weight subnormal by (SCC-1 cells [4]; mouse, in vivo): 9-10%; gross observations and pathological findings (SCC-1 cells [4]; mouse, in vivo): distended abdomens, impacted bowel, and severe body weight loss; growth depressed from control levels (CAL-27 cells; paclitaxel 10^−7 M): 66%; growth depressed from control levels (CAL-27 cells; paclitaxel 10^−8 M): 53%; growth depressed from control levels (CAL-27 cells; paclitaxel 10^−9 M): 44%; growth depressed from control levels (CAL-27 cells; paclitaxel 10^−10 M): 22%; fraction of SCCHN cells apoptotic (SCC-1 cells [5]; 6 days of drug exposure): over one-half |
| [Met^5]-enkephalin [OGF] | 11.9 | 6.7 | 12.7 | approximately 10% | 10 | 23 | notably reduced from control values | 16% | 61 | 11 days | 33 | 66 | 8/12 | 4/12^a | none | 25 | negligible | reduction of cell number from control levels (SCC-1 cells [2]; SCC-1, MTS, 48-96 hr, OGF 10^−6 M alone or with carboplatin 10^−7 M): 8-10%; decrease from control levels in absorbency readings (SCC-1 cells [2]; SCC-1, opioids 10^−6 M daily): 19%; tumor volume reduction from control values (SCC-1 cells [4]; day 50): 33%; Tumor Volume, mm^3 (SCC-1 cells [4]; day 50, means ± SEM): 2590 ± 364* mm^3; Tumor Weight (SCC-1 cells [4]; day 50, means ± SEM): 1.7 ± 0.2 g; Latency to measurable tumor (days) (SCC-1 cells [4]; means ± SEM): 17.0 ± 1.5^ days; Latency to visible tumor (days) (SCC-1 cells [4]; means ± SEM): 11.2 ± 1.5^b days; delay of visible tumors versus controls (SCC-1 cells [4]; p<0.02): four-day delay; weights of tumors reduced from control levels (SCC-1 cells [4]; termination day (day 50)): 29% |
